Laboratory results reported in patent US6500853B1, “Inhibitors of phospholipase enzymes” (Genetics Institute, LLC, priority 1998, dated 2002).
Blank lines part the entries; values can stand above or below the molecule they belong to.

Key:
cPLA2 = biological target: T1, cPLA2 (Homo sapiens, UniProt P47712); test: Coumarin Assay (cPLA2 inhibition); type: biochemical; settings: for inhibition at 12.5 µM: CONCENTRATION 12.5 micromolar; for inhibition at 50 µM: CONCENTRATION 50 micromolar; for inhibition at 70 µM: CONCENTRATION 70 micromolar; for inhibition at 100 µM: CONCENTRATION 100 micromolar; for inhibition at 400 µM: CONCENTRATION 400 micromolar
T1 sequence (P47712 1-749): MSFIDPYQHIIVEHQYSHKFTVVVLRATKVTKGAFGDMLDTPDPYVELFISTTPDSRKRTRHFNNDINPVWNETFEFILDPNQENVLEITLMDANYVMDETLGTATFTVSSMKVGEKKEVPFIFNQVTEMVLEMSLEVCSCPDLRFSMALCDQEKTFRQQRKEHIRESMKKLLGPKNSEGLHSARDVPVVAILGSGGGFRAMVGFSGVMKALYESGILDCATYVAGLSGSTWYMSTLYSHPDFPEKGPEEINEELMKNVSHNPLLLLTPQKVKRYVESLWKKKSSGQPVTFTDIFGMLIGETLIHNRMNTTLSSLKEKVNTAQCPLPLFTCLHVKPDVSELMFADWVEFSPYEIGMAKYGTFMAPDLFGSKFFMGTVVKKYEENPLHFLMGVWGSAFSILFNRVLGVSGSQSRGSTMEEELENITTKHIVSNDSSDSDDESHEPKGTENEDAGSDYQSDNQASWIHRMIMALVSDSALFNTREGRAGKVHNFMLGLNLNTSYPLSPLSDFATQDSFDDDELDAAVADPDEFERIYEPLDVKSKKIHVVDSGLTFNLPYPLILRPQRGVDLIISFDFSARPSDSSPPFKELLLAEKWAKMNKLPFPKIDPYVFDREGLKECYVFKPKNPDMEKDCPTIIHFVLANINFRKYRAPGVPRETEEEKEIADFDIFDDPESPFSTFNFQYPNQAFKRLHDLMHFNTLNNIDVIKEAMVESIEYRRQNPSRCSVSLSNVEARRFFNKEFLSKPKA
Method in brief: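 Percent inhibition at the stated concentration, from the rate of 460 nm emission rise (360 nm excitation) per minute. Reaction started by adding 4 μg enzyme to compound and 60 μM 7-hydroxycoumarinyl 6-heptenoate in Hepes buffer pH 7.5 with 1 mM EDTA.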

[1] = system: Rat Carrageenan-Induced Footpad Edema; test: Rat Carrageenan-Induced Footpad Edema Test; type: in vivo, male Sprague Dawley rats; settings: Rattus norvegicus, 3 h, footpad volume 3 hours after carrageenan, read-out: PERCENT INHIBITION; for inhibition in vivo at 2 mg/kg / inhibition in vivo at 10 mg/kg: po, PO; for inhibition in vivo at 5 mg/kg: iv, IV
[2] = CONCENTRATION 200 micromolar, read-out: PERCENT INHIBITION @

Structure (SMILES): O=C(NS(=O)(=O)C(F)(F)F)c1ccc(Cc2cn(C(c3ccccc3)c3ccccc3)c3ccc(Br)cc23)cc1 [Example 58, N-{4-[(1-benzhydryl-5-bromo-1H-indol-3-yl)methyl]benzoyl}(trifluoro)methanesulfonamide]
- inhibition at 1.65 µM (cPLA2; CONCENTRATION 1.65 micromolar, read-out: PERCENT INHIBITION @): 50%
- inhibition in vivo at 2 mg/kg [1]: 13.8%
- inhibition in vivo at 10 mg/kg [1]: 9.96%

Structure (SMILES): O=C(Nc1cccc(C(=O)O)c1)C(=O)c1cn(Cc2ccc(Cc3ccccc3)cc2)c2ccccc12 [Example 59, 3-({2-[1-(4-benzylbenzyl)-1H-indol-3-yl]-2-oxoacetyl}amino)benzoic acid]
- inhibition at 6 µM (cPLA2; CONCENTRATION 6 micromolar, read-out: PERCENT INHIBITION @): 50%
- inhibition at 12.5 µM (cPLA2; read-out: PERCENT INHIBITION @): 90%
- inhibition in vivo at 5 mg/kg [1]: 2.9%

Structure (SMILES): O=C(Nc1cccc(C(=O)O)c1)C(=O)c1cn(C(c2ccccc2)c2ccccc2)c2ccccc12 [Example 61, 3-{[2-(1-benzhydryl-1H-indol-3-yl)-2-oxoacetyl]amino}benzoic acid]
- inhibition at 10 µM (cPLA2; CONCENTRATION 10 micromolar, read-out: PERCENT INHIBITION @): 50%
- inhibition at 12.5 µM (cPLA2; read-out: PERCENT INHIBITION @): 54%
- inhibition in vivo at 5 mg/kg [1]: 18.3%

Structure (SMILES): O=C(Nc1cccc(C(=O)O)c1)C(=O)c1cn(Cc2ccc(OCc3ccccc3)c(OCc3ccccc3)c2)c2ccccc12 [Example 63, 3-[(2-{1-[3,4-bis(benzyloxy)benzyl]-1H-indol-3-yl}-2-oxoacetyl)amino]benzoic acid]
- inhibition at 2.5 µM (cPLA2; CONCENTRATION 2.5 micromolar, read-out: PERCENT INHIBITION @): 70%
- inhibition at 7 µM (cPLA2; CONCENTRATION 7 micromolar, read-out: PERCENT INHIBITION @): 50%
- inhibition in vivo at 5 mg/kg [1]: 19.6%

Structure (SMILES): O=C(O)c1cccc(NCc2cn(C(c3ccccc3)c3ccccc3)c3ccc(NC(=O)C4CCCC4)cc23)c1 [Example 65, 3-[({1-benzhydryl-5-[(cyclopentylcarbonyl)amino]-1H-indol-3-yl}methyl)amino]benzoic acid]
- inhibition at 50 µM (cPLA2; read-out: PERCENT INHIBITION @): 47%
- inhibition at 72 µM (cPLA2; CONCENTRATION 72 micromolar, read-out: PERCENT INHIBITION @): 50%
- inhibition at 80 µM (cPLA2; CONCENTRATION 80 micromolar, read-out: PERCENT INHIBITION @): 50%
- inhibition in vivo at 5 mg/kg [1]: 2.84%

Structure (SMILES): O=C(O)CN1CCN(Cc2cn(C(c3ccccc3)c3ccccc3)c3ccc(NC(=O)C4CCCC4)cc23)CC1 [Example 66, 2-[4-({1-benzhydryl-5-[(cyclopentylcarbonyl)amino]-1H-indol-3-yl}methyl)piperazino]acetic acid]
- inhibition at 70 µM (cPLA2; read-out: PERCENT INHIBITION @): 50%
- PERCENT INHIBITION @ (cPLA2; CONCENTRATION 200 micromolar): 19%
- inhibition at 200 µM (cPLA2; [2]): 15%
- inhibition in vivo at 5 mg/kg [1]: 25.3%

Structure (SMILES): Cc1ccc(S(=O)(=O)NC(=O)c2cccc(NC(=O)C(=O)c3cn(Cc4ccc(Cc5ccccc5)cc4)c4ccc(OCc5ccccc5)cc34)c2)cc1 [Example 76, 2-[1-(4-benzylbenzyl)-5-(benzyloxy)-1H-indol-3-yl]-N-[3-({[(4-methylphenyl)sulfonyl]amino}carbonyl)phenyl]-2-oxoacetamide]
- inhibition at 4 µM (cPLA2; CONCENTRATION 4 micromolar, read-out: PERCENT INHIBITION @): 50%
- inhibition in vivo at 5 mg/kg [1]: 14.8%

Structure (SMILES): O=C(O)Cc1cn(Cc2ccccc2)c2ccc(-c3cc4ccccc4o3)cc12 [Example 80, 2-[5-(1-benzofuran-2-yl)-1-benzyl-1H-indol-3-yl]acetic acid]
- inhibition at 48 µM (cPLA2; CONCENTRATION 48 micromolar, read-out: PERCENT INHIBITION @): 50%
- inhibition at 50 µM (cPLA2; read-out: PERCENT INHIBITION @): 60%
- inhibition in vivo at 5 mg/kg [1]: 10.2%

Structure (SMILES): O=C(O)CCc1cn(C(c2ccccc2)c2ccccc2)c2ccc(NC(=O)C3CCCC3)cc12 [Example 84, 3-{1-benzhydryl-5-[(cyclopentylcarbonyl)amino]-1H-indol-3-yl}propanoic acid]
- inhibition at 100 µM (cPLA2; read-out: PERCENT INHIBITION @): 22%
- inhibition at 265 µM (cPLA2; CONCENTRATION 265 micromolar, read-out: PERCENT INHIBITION @): 50%
- inhibition at 350 µM (cPLA2; CONCENTRATION 350 micromolar, read-out: PERCENT INHIBITION @): 50%
- inhibition in vivo at 5 mg/kg [1]: 6.15%

Structure (SMILES): O=C(O)/C=C/c1cn(C(c2ccccc2)c2ccccc2)c2ccc(NC(=O)C3CCCC3)cc12 [Example 86A, (E)-3-{1-benzhydryl-5-[(cyclopentylcarbonyl)amino]-1H-indol-3-yl}-2-propenoic acid]
- inhibition at 60 µM (cPLA2; CONCENTRATION 60 micromolar, read-out: PERCENT INHIBITION @): 50%
- inhibition at 70 µM (cPLA2; read-out: PERCENT INHIBITION @): 50%
- inhibition at 82 µM (cPLA2; CONCENTRATION 82 micromolar, read-out: PERCENT INHIBITION @): 50%
- inhibition at 118 µM (cPLA2; CONCENTRATION 118 micromolar, read-out: PERCENT INHIBITION @): 50%
- inhibition in vivo at 5 mg/kg [1]: 7.4%

More lines, main results first:

- inhibition at 0.98 µM (cPLA2; CONCENTRATION 0.98 micromolar, read-out: PERCENT INHIBITION @): 50%
- inhibition at 1.2 µM (cPLA2; CONCENTRATION 1.2 micromolar, read-out: PERCENT INHIBITION @): 50%
Structure (SMILES): Cc1ccccc1S(=O)(=O)NC(=O)c1ccc(Cc2cn(C(c3ccccc3)c3ccccc3)c3ccc([N+](=O)[O-])cc23)cc1 [Example 56, N-{4-[(1-benzhydryl-5-nitro-1H-indol-3-yl)methyl]benzoyl}-2-methylbenzenesulfonamide]
- inhibition in vivo at 2 mg/kg [1]: 4.22%
- inhibition in vivo at 10 mg/kg [1]: 9.34%

- inhibition at 1.05 µM (cPLA2; CONCENTRATION 1.05 micromolar, read-out: PERCENT INHIBITION @): 50%
- inhibition at 1.38 µM (cPLA2; CONCENTRATION 1.38 micromolar, read-out: PERCENT INHIBITION @): 50%
- inhibition at 1.4 µM (cPLA2; CONCENTRATION 1.4 micromolar, read-out: PERCENT INHIBITION @): 50%
Structure (SMILES): Cc1ccccc1S(=O)(=O)NC(=O)c1ccc(Cc2cn(C(c3ccccc3)c3ccccc3)c3ccc(Br)cc23)cc1 [Example 57, N-{4-[(1-benzhydryl-5-bromo-1H-indol-3-yl)methyl]benzoyl}-2-methylbenzenesulfonamide]
- inhibition in vivo at 2 mg/kg [1]: 10.4%
- inhibition in vivo at 10 mg/kg [1]: 20.7%

- inhibition at 100 µM (cPLA2; read-out: PERCENT INHIBITION @): 8%
- inhibition at 400 µM (cPLA2; read-out: PERCENT INHIBITION @): 31%
Structure (SMILES): O=C(O)CC1C(=O)NCCN1Cc1cn(C(c2ccccc2)c2ccccc2)c2ccc(NC(=O)C3CCCC3)cc12 (centres unmarked) [Example 67, 2-[1-({1-benzhydryl-5-[(cyclopentylcarbonyl)amino]-1H-indol-3-yl}methyl)-3-oxo-2-piperazinyl]acetic acid]
- inhibition in vivo at 5 mg/kg [1]: 10.8%

- inhibition at 100 µM (cPLA2; read-out: PERCENT INHIBITION @): 9%
- inhibition at 400 µM (cPLA2; read-out: PERCENT INHIBITION @): 18%
Structure (SMILES): O=C(Nc1ccc2c(c1)c(CNC(CO)C(=O)O)cn2C(c1ccccc1)c1ccccc1)C1CCCC1 (centres unmarked) [Example 68, 2-[({1-benzhydryl-5-[(cyclopentylcarbonyl)amino]-1H-indol-3-yl}methyl)amino]-3-hydroxypropanoic acid]
- inhibition in vivo at 5 mg/kg [1]: -4.3%

- inhibition at 6.25 µM (cPLA2; CONCENTRATION 6.25 micromolar, read-out: PERCENT INHIBITION @): 61%
- inhibition at 6.5 µM (cPLA2; CONCENTRATION 6.5 micromolar, read-out: PERCENT INHIBITION @): 50%
Structure (SMILES): O=C(O)c1ccc(CN2C(=O)S/C(=C/c3cn(CCCOc4cccc(Cc5ccccc5)c4)c4ccccc34)C2=O)cc1 [Example 82B, 4-{[5-((E)-{1-[3-(3-benzylphenoxy)propyl]-1H-indol-3-yl}methylidene)-2,4-dioxo-1,3-thiazolan-3-yl]methyl}benzoic acid]
- inhibition in vivo at 5 mg/kg [1]: 4.94%

- inhibition at 100 µM (cPLA2; read-out: PERCENT INHIBITION @): 31%
- inhibition at 200 µM (cPLA2; [2]): 50%
Structure (SMILES): CS(=O)(=O)NC(=O)CCc1cn(C(c2ccccc2)c2ccccc2)c2ccc(NC(=O)C3CCCC3)cc12 [Example 85, N-(1-benzhydryl-3-{3-[(methylsulfonyl)amino]-3-oxopropyl}-1H-indol-5-yl)cyclopentanecarboxamide]
- inhibition in vivo at 5 mg/kg [1]: 7.13%

- inhibition at 50 µM (cPLA2; read-out: PERCENT INHIBITION @): 33%
- inhibition at 95 µM (cPLA2; CONCENTRATION 95 micromolar, read-out: PERCENT INHIBITION @): 50%
Structure (SMILES): O=C(O)/C=C/c1cn(C(c2ccccc2)c2ccccc2)c2ccc([N+](=O)[O-])cc12 [Example 87A, (E)-3-{1-benzhydryl-5-nitro-1H-indol-3-yl}-2-propenoic acid]
- inhibition in vivo at 2 mg/kg [1]: 12.9%
- inhibition in vivo at 10 mg/kg [1]: 25.4%
